Literature values as cited in US20050271754A1, “Composition for prevention or treatment of an alcohol hangover” (priority 2004, published 2005).

Tested on: acetaldehyde levels in the blood, liver and brain
Settings: increases the oxidation cycle of ethanol

For `N[C@@H](CS)C(=O)O` [L-cysteine], the “acetaldehyde levels in the blood, liver and brain” value is listed as “lowering acetaldehyde levels”.
